Where a SMILES comes first, the peptide text is derived from it. [ ]: non-standard residue; d: D form. NMeL = CN[C@@H](CC(C)C)C(=O)O; dNMeL = CN[C@H](CC(C)C)C(=O)O; NMeV = CN[C@H](C(=O)O)C(C)C; NMeA = CN[C@@H](C)C(=O)O; dNMeA = CN[C@H](C)C(=O)O
Legend:
in vitro = conditions: PAMPA, PAMPA_Papp_Avg
[1] = PAMPA

Compound	Papp (in vitro) [×10⁻⁶ cm/s]	PAMPA_R1 [1]	PAMPA_R3 [1]
CC(C)C[C@@H]1NC(=O)[C@@H](Cc2ccccc2)NC(=O)[C@@H](CC(C)C)N(C)C(=O)[C@@H]2CCCN2C(=O)[C@H](C)NC(=O)[C@@H](CC(C)C)N(C)C(=O)[C@@H]2CCCN2C(=O)[C@H](CC(C)C)N(C)C(=O)[C@H](CC(C)C)N(C)C(=O)[C@H](C(C)C)NC1=O [Design D10.20, PRO *DLEU ALA PRO *DLEU DPHE LEU VAL *LEU *LEU] (cyclo(AP[dNMeL][dF]LV[NMeL][NMeL]P[dNMeL]))	2.59	1.95E-06	3.37E-06
CC[C@@H](C)[C@H]1NC(=O)[C@H](C(C)C)NC(=O)[C@H]2CCCN2C(=O)[C@@H]2CCCN2C(=O)[C@H](CC(C)C)N(C)C(=O)[C@H](C)N(C)C(=O)[C@@H](CC(C)C)N(C)C(=O)[C@H](C)NC(=O)[C@@H](Cc2ccccc2)NC(=O)[C@@H]2CCCN2C1=O [Design D10.25, DPHE ALA *DLEU *ALA *LEU PRO DPRO VAL DILE PRO] (cyclo(A[dNMeL][NMeA][NMeL]P[dP]V[dI]P[dF]))	0.452	3.97E-07	4.39E-07
CC[C@@H](C)[C@H]1NC(=O)[C@@H]2CCCN2C(=O)[C@@H](Cc2ccccc2)NC(=O)[C@H](CC(C)C)N(C)C(=O)[C@H](C)NC(=O)[C@H]2CCCN2C(=O)[C@@H]2CCCN2C(=O)[C@H](CC(C)C)NC(=O)[C@H](CC(C)C)N(C)C(=O)[C@H](C)N(C)C1=O [Design D10.26, PRO DILE *ALA *LEU LEU PRO DPRO ALA *LEU DPHE] (cyclo(A[NMeL][dF]P[dI][NMeA][NMeL]LP[dP]))	1.51	1.40E-06	1.69E-06
CC(C)[C@@H]1NC(=O)[C@H]2CCCN2C(=O)[C@@H](C(C)C)NC(=O)[C@@H]2CCCN2C(=O)[C@H](Cc2ccccc2)NC(=O)[C@H](Cc2ccccc2)NC(=O)[C@H]2CCCN2C(=O)[C@@H](C(C)C)NC(=O)[C@@H]2CCCN2C(=O)[C@H](C(C)C)NC1=O [Design D10.27, PRO DVAL DPRO VAL VAL PRO DVAL DPRO PHE PHE] (cyclo(FFP[dV][dP]VVP[dV][dP]))	0.49	5.18E-07	5.10E-07
CC(C)C[C@@H]1C(=O)N[C@@H](C)C(=O)N[C@H](CC(C)C)C(=O)N(C)[C@@H](C)C(=O)N2CCC[C@@H]2C(=O)N2CCC[C@@H]2C(=O)N2CCC[C@@H]2C(=O)N2CCC[C@H]2C(=O)N[C@H](C(C)C)C(=O)N(C)[C@@H](CC(C)C)C(=O)N1C [Design D10.28, DLEU *ALA DPRO DPRO DPRO PRO DVAL *LEU *DLEU ALA] (cyclo([dV][NMeL][dNMeL]A[dL][NMeA][dP][dP][dP]P))	0.184	1.56E-07	2.34E-07
CC(C)C[C@@H]1C(=O)N(C)[C@H](C)C(=O)N(C)[C@@H](C(C)C)C(=O)N2CCC[C@@H]2C(=O)N[C@H](C)C(=O)N[C@@H](Cc2ccccc2)C(=O)N2CCC[C@@H]2C(=O)N2CCC[C@H]2C(=O)N[C@H](C(C)C)C(=O)N[C@@H](C(C)C)C(=O)N1C [Design D10.29, PHE DPRO PRO DVAL VAL *DLEU *DALA *VAL DPRO DALA] (cyclo([dV]V[dNMeL][dNMeA][NMeV][dP][dA]F[dP]P))	0.441	3.87E-07	4.67E-07
CC(C)C[C@H]1NC(=O)[C@H](CC(C)C)N(C)C(=O)[C@@H](Cc2ccccc2)NC(=O)[C@@H](C)N(C)C(=O)[C@@H]2CCCN2C(=O)[C@H](C(C)C)NC(=O)[C@H](CC(C)C)N(C)C(=O)[C@@H](C)NC(=O)[C@@H]2CCCN2C(=O)[C@H]2CCCN2C1=O [Design D10.32, PRO *DALA DPHE *LEU DLEU DPRO PRO DALA *LEU VAL] (cyclo([dA][NMeL]VP[dNMeA][dF][NMeL][dL][dP]P))	3.18	2.87E-06	2.80E-06

Source: PMC9490236, “Accurate de novo design of membrane-traversing macrocycles” (Cell, 2022)
